Here are results for 6 compounds from patent US20250122397A1, “FOOD SAFE AQUEOUS INKJET COMPOSITIONS” (Canon Production Printing Holding B.V., priority 2023, published 2025).

A short description of one data set: Viscosity, Haake Rheostress RS 600 rheometer, flat plate geometry. It counts as physicochemical. To be noted: 1.5 mol/kg aqueous Mg-salt solution, 25° C. The protocol:
The viscosity is measured using a Haake Rheometer, type Haake Rheostress RS 600, with a flat plate geometry at a temperature of 25° C. unless otherwise indicated. The viscosity is measured at shear rates (i) of between in the range of between 10 s^−1 and 1000 s^−1, unless otherwise indicated.
`O=S(=O)([O-])[O-].[Mg+2]` [compound 1, Mg-sulfate, reference compound]: the Viscosity is on record as 3.2 mPas.

Consider `O=[N+]([O-])[O-].O=[N+]([O-])[O-].[Mg+2]` [compound 2, Mg-nitrate, reference compound], for which the Viscosity was 4.6 mPas.

For the compound `C=C(CC(=O)[O-])C(=O)[O-].[Mg+2]` [compound 8, Mg-itaconate], the Viscosity is reported as 5.5 mPas.

Take `O=C([O-])CCC(=O)[O-].[Mg+2]` [compound 10, Mg-succinate]: the Viscosity came to 5.0 mPas.

`CC(=O)CCC(=O)[O-].CC(=O)CCC(=O)[O-].[Mg+2]` [compound 14, Mg-levulinate]: the Viscosity turned out to be 10.3 mPas.

On to `O=C([O-])CCCCC(=O)[O-].[Mg+2]` [compound 15, Mg-adipate], for which the Viscosity was 8.8 mPas.

The data set is the same for the next values; noted with them: jettable range typically between 2 and 8 mPas; 1.5 mol/kg solution.
With `CC(=O)CCC(=O)[O-].CC(=O)CCC(=O)[O-].[Mg+2]` [compound 14, Mg-levulinate], the “viscosity relative to the jettable range” value was “outside the jettable range”.
